In publication PMC12307812 (Nature Communications, 2025):

Tests used:
[1] = test system: pseudovirus bearing S protein of SARS-CoV-2 lineage B.1; experiment: organism not typed; assay type: cell-based
[2] = target: T1, Recombinant Human TMPRSS2 (Homo sapiens, UniProt O15393); experiment: TMPRSS2 biochemical assay with pre-incubation of inhibitor and enzyme; details: for inhibition at 2.788 pM: concentration 0.00278767 nM; for inhibition at 8.363 pM: concentration 0.00836301 nM; for inhibition at 25.09 pM: concentration 0.025089 nM; for inhibition at 75.27 pM: concentration 0.0752671 nM; for inhibition at 0.000225801 µM: concentration 0.225801 nM; for inhibition at 0.000677404 µM: concentration 0.677404 nM; for inhibition at 0.00203221 µM: concentration 2.03221 nM; for inhibition at 0.00609663 µM: concentration 6.09663 nM; for inhibition at 0.0182899 µM: concentration 18.2899 nM; for inhibition at 0.0548697 µM: concentration 54.8697 nM; for inhibition at 0.164609 µM: concentration 164.609 nM; for inhibition at 0.493827 µM: concentration 493.827 nM; for inhibition at 1.48148 µM: concentration 1481.48 nM; for inhibition at 4.44444 µM: concentration 4444.44 nM; for inhibition at 13.3333 µM: concentration 13333.3 nM; for inhibition at 40 µM: concentration 40000 nM
T1 construct: human TMPRSS2 residues 106492, N-terminal 6x His-tag; 6x His-tag (N); purchased Cusabio CSB-YP023924HU; host or cells: yeast
T1 sequence (O15393 106-492 limits assumed): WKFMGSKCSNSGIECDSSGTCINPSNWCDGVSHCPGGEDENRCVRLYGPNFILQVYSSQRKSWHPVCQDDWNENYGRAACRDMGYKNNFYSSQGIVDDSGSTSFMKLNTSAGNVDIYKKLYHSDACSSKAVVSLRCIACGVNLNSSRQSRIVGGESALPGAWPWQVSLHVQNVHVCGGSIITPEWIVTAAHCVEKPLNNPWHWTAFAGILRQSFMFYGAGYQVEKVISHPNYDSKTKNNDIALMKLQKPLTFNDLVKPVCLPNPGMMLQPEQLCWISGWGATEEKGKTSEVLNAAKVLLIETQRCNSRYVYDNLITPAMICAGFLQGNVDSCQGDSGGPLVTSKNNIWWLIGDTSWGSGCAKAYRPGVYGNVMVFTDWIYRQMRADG
Procedure: To that was dispensed TMPRSS2 (5 µl, 0.018 mg/ml) in assay buffer (50 mM Tris pH 8, 150 mM NaCl, 0.01% Tween20) using a BioRAPTR (Beckman Coulter) to give a total reaction volume of 5 µl. […] The final assay conditions are 10 µM peptide, 0.018 mg/ml TMPRSS2 in assay buffer (50 mM Tris-HCl, pH 8, 150 mM NaCl, 0.01% Tween20).
After incubation at room temperature for 1 h, fluorescence was measured. […] Raw plate reads for each titration point were normalized relative to a positive control containing no enzyme (0% activity, full inhibition) and a negative control containing DMSO-only wells (100% activity, basal activity). Data normalization was performed using GraphPad Prism (GraphPad Software, San Diego, CA).
We employed the curve fitting algorithm available in the SciPy package (version 1.10.1)[61] to derive the Hill slope and the IC50 value, along with their corresponding error estimates.
To model the relationship between the pre-incubation time and the IC50, we use the following equation inspired by the Morse potential:3 ft,a,D,te=D⋅1−exp−a⋅t−te^2 where t is the time, a is the width of the well, D is the IC50 at infinite time (depth of the well) and te is the time at which the IC50 reaches its minimum. Again, we made use of SciPy’s curve fitting method to obtain parameters a, D and te, with their respective error estimates.

CN(C)C(=O)COC(=O)Cc1ccc(OC(=O)c2ccc(NC(=N)N)cc2)cc1 [camostat]
inhibition at 0.00025 µM ([1]; Calu-3, B.1, concentration 0.25 nM): -1.94%
inhibition at 0.0025 µM ([1]; Calu-3, B.1, concentration 2.5 nM): 3.06%
inhibition at 0.025 µM ([1]; Calu-3, B.1, concentration 25 nM): 2.53%
inhibition at 0.25 µM ([1]; Calu-3, B.1, concentration 250 nM): 60.8%
inhibition at 2.5 µM ([1]; Calu-3, B.1, concentration 2500 nM): 89.4%
inhibition at 25 µM ([1]; Calu-3, B.1, concentration 25000 nM): 96.6%
IC50 ([1]; Calu-3 cells, read-out: IC50, pseudovirus cell entry B.1): 0.19 µM
inhibition at 2.788 pM ([2]; pre-incubation 0): -8.21%
inhibition at 8.363 pM ([2]; pre-incubation 0): -16.5%
inhibition at 25.09 pM ([2]; pre-incubation 0): -12.1%
inhibition at 75.27 pM ([2]; pre-incubation 0): 11.6%
inhibition at 0.000225801 µM ([2]; pre-incubation 0): 44.8%
inhibition at 0.000677404 µM ([2]; pre-incubation 0): 63.8%
inhibition at 0.00203221 µM ([2]; pre-incubation 0): 78.4%
inhibition at 0.00609663 µM ([2]; pre-incubation 0): 87.8%
inhibition at 0.0182899 µM ([2]; pre-incubation 0): 93.9%
inhibition at 0.0548697 µM ([2]; pre-incubation 0): 95.2%
inhibition at 0.164609 µM ([2]; pre-incubation 0): 94.9%
inhibition at 0.493827 µM ([2]; pre-incubation 0): 96.5%
inhibition at 1.48148 µM ([2]; pre-incubation 0): 97.9%
inhibition at 4.44444 µM ([2]; pre-incubation 0): 97.2%
inhibition at 13.3333 µM ([2]; pre-incubation 0): 98.7%
inhibition at 40 µM ([2]; pre-incubation 0): 98.9%
inhibition at 2.788 pM ([2]; pre-incubation 1): 6.01%
inhibition at 8.363 pM ([2]; pre-incubation 1): 2.49%
inhibition at 25.09 pM ([2]; pre-incubation 1): 10%
inhibition at 75.27 pM ([2]; pre-incubation 1): 58.4%
inhibition at 0.000225801 µM ([2]; pre-incubation 1): 90.2%
inhibition at 0.000677404 µM ([2]; pre-incubation 1): 93.6%
inhibition at 0.00203221 µM ([2]; pre-incubation 1): 94.9%
inhibition at 0.00609663 µM ([2]; pre-incubation 1): 95.1%
inhibition at 0.0182899 µM ([2]; pre-incubation 1): 94.9%
inhibition at 0.0548697 µM ([2]; pre-incubation 1): 96.1%
inhibition at 0.164609 µM ([2]; pre-incubation 1): 96%
inhibition at 0.493827 µM ([2]; pre-incubation 1): 95.8%
inhibition at 1.48148 µM ([2]; pre-incubation 1): 97.1%
inhibition at 4.44444 µM ([2]; pre-incubation 1): 97.4%
inhibition at 13.3333 µM ([2]; pre-incubation 1): 98.2%
inhibition at 40 µM ([2]; pre-incubation 1): 99.4%
inhibition at 2.788 pM ([2]; pre-incubation 4): 8.38%
inhibition at 8.363 pM ([2]; pre-incubation 4): 5.55%
inhibition at 25.09 pM ([2]; pre-incubation 4): 35.8%
inhibition at 75.27 pM ([2]; pre-incubation 4): 91%
inhibition at 0.000225801 µM ([2]; pre-incubation 4): 96.5%
inhibition at 0.000677404 µM ([2]; pre-incubation 4): 97.6%
inhibition at 0.00203221 µM ([2]; pre-incubation 4): 97.9%
inhibition at 0.00609663 µM ([2]; pre-incubation 4): 98.2%
inhibition at 0.0182899 µM ([2]; pre-incubation 4): 98%
inhibition at 0.0548697 µM ([2]; pre-incubation 4): 98.6%
inhibition at 0.164609 µM ([2]; pre-incubation 4): 98.2%
inhibition at 0.493827 µM ([2]; pre-incubation 4): 99.2%
inhibition at 1.48148 µM ([2]; pre-incubation 4): 99.4%
inhibition at 4.44444 µM ([2]; pre-incubation 4): 100%
inhibition at 13.3333 µM ([2]; pre-incubation 4): 101%
inhibition at 40 µM ([2]; pre-incubation 4): 102%
inhibition at 2.788 pM ([2]; pre-incubation 8): 20.8%
inhibition at 8.363 pM ([2]; pre-incubation 8): 10.7%
inhibition at 25.09 pM ([2]; pre-incubation 8): 61.7%
inhibition at 75.27 pM ([2]; pre-incubation 8): 104%
inhibition at 0.000225801 µM ([2]; pre-incubation 8): 108%
inhibition at 0.000677404 µM ([2]; pre-incubation 8): 110%
inhibition at 0.00203221 µM ([2]; pre-incubation 8): 111%
inhibition at 0.00609663 µM ([2]; pre-incubation 8): 112%
inhibition at 0.0182899 µM ([2]; pre-incubation 8): 111%
inhibition at 0.0548697 µM ([2]; pre-incubation 8): 112%
inhibition at 0.164609 µM ([2]; pre-incubation 8): 113%
inhibition at 0.493827 µM ([2]; pre-incubation 8): 113%
inhibition at 1.48148 µM ([2]; pre-incubation 8): 114%
inhibition at 4.44444 µM ([2]; pre-incubation 8): 115%
inhibition at 13.3333 µM ([2]; pre-incubation 8): 114%
inhibition at 40 µM ([2]; pre-incubation 8): 115%
inhibition at 2.788 pM ([2]; pre-incubation 18): 24.4%
inhibition at 8.363 pM ([2]; pre-incubation 18): 17.1%
inhibition at 25.09 pM ([2]; pre-incubation 18): 57.1%
inhibition at 75.27 pM ([2]; pre-incubation 18): 86.7%
inhibition at 0.000225801 µM ([2]; pre-incubation 18): 91.7%
inhibition at 0.000677404 µM ([2]; pre-incubation 18): 94.1%
inhibition at 0.00203221 µM ([2]; pre-incubation 18): 95.7%
inhibition at 0.00609663 µM ([2]; pre-incubation 18): 98.6%
inhibition at 0.0182899 µM ([2]; pre-incubation 18): 99.3%
inhibition at 0.0548697 µM ([2]; pre-incubation 18): 99.9%
inhibition at 0.164609 µM ([2]; pre-incubation 18): 101%
inhibition at 0.493827 µM ([2]; pre-incubation 18): 102%
inhibition at 1.48148 µM ([2]; pre-incubation 18): 102%
inhibition at 4.44444 µM ([2]; pre-incubation 18): 103%
inhibition at 13.3333 µM ([2]; pre-incubation 18): 103%
inhibition at 40 µM ([2]; pre-incubation 18): 104%
inhibition at 2.788 pM ([2]; pre-incubation 24): 38.3%
inhibition at 8.363 pM ([2]; pre-incubation 24): 38.8%
inhibition at 25.09 pM ([2]; pre-incubation 24): 73.1%
inhibition at 75.27 pM ([2]; pre-incubation 24): 100%
inhibition at 0.000225801 µM ([2]; pre-incubation 24): 105%
inhibition at 0.000677404 µM ([2]; pre-incubation 24): 107%
inhibition at 0.00203221 µM ([2]; pre-incubation 24): 107%
inhibition at 0.00609663 µM ([2]; pre-incubation 24): 108%
inhibition at 0.0182899 µM ([2]; pre-incubation 24): 110%
inhibition at 0.0548697 µM ([2]; pre-incubation 24): 110%
inhibition at 0.164609 µM ([2]; pre-incubation 24): 111%
inhibition at 0.493827 µM ([2]; pre-incubation 24): 111%
inhibition at 1.48148 µM ([2]; pre-incubation 24): 112%
inhibition at 4.44444 µM ([2]; pre-incubation 24): 112%
inhibition at 13.3333 µM ([2]; pre-incubation 24): 112%
inhibition at 40 µM ([2]; pre-incubation 24): 113%
inhibition at 2.788 pM ([2]; pre-incubation 48): 4.55%
inhibition at 8.363 pM ([2]; pre-incubation 48): -1.82%
inhibition at 25.09 pM ([2]; pre-incubation 48): 28.4%
inhibition at 75.27 pM ([2]; pre-incubation 48): 71.5%
inhibition at 0.000225801 µM ([2]; pre-incubation 48): 83.3%
inhibition at 0.000677404 µM ([2]; pre-incubation 48): 86.8%
inhibition at 0.00203221 µM ([2]; pre-incubation 48): 88.2%
inhibition at 0.00609663 µM ([2]; pre-incubation 48): 89.9%
inhibition at 0.0182899 µM ([2]; pre-incubation 48): 90.6%
inhibition at 0.0548697 µM ([2]; pre-incubation 48): 91.9%
inhibition at 0.164609 µM ([2]; pre-incubation 48): 92.7%
inhibition at 0.493827 µM ([2]; pre-incubation 48): 94.2%
inhibition at 1.48148 µM ([2]; pre-incubation 48): 95.1%
inhibition at 4.44444 µM ([2]; pre-incubation 48): 97%
inhibition at 13.3333 µM ([2]; pre-incubation 48): 100%
inhibition at 40 µM ([2]; pre-incubation 48): 107%
